One series has as its target T1, AmpC L293A (Escherichia coli, UniProt P00811, L309A).
T1 construct: made in house
The series is described as follows: biochemical. Type of series: biochemical. As for the experimental part:
(§1) Enzyme mutagenesis and preparation. Mutants of AmpC were created using the overlap extension polymerase chain reaction (23). Mutant enzymes were expressed as described. AmpC N289A and L293A were purified on an m-aminophenylboronic acid affinity column. AmpC L119A was purified on an S-Sepharose ion-exchange column. The purified enzymes were concentrated using Centricon spin concentrators.
(§2) Mutant Enzymology. The glycylboronic acids were dissolved in DMSO at a concentration of 50 mM; more dilute stocks were subsequently prepared as necessary. Kinetic measurements were performed using nitrocefin as a substrate in 50 mM Tris buffer, pH 7.0, and monitored at 480 nm in an HP9453 UV-vis spectrophotometer. To prevent overestimation of inhibition due to sequestration of the enzyme on the walls of the cuvette during the reaction, 0.1% BSA was added to the buffer in all reactions. […] To determine Ki values, inhibitor and enzyme were incubated together in the cuvettes for 5 min before reaction was initiated by the addition of substrate. 200 μM nitrocefin was used for the reactions with L119A and L293A, whereas 400 μM nitrocefin was used for the reactions with N289A to shorten the lag phase of the reaction. For the reactions with N289A, rates were calculated from the later portions of the curve, once the reactions had achieved steady state. These rates were compared with portions of the uninhibited curves that corresponded to the same range of substrate concentrations.

Another series addresses T2, AmpC N289A (Escherichia coli, UniProt P00811, N305A).
T2 construct: made in house
Put plainly: biochemical. The series is classed as biochemical. How it is done:
as §1, §2

Series [1] concerns the target T3, AmpC β-lactamase (Escherichia coli, UniProt P00811).
T3 construct: made in house
Put plainly: biochemical. The conditions noted are these: for fold more potent than the lead compound lacking the m.carboxyphenyl side chain: 15 versus 1, 16 versus 4. How it is done: Enzymology. The phenylglycylboronic acids of the preceding examples were dissolved in DMSO at a concentration of 50 mM; more dilute stocks (10 mM to 1 μM) were subsequently prepared as necessary. Kinetic measurements were performed using nitrocefin as substrate in 50 mM Tris buffer, pH 7.0 and monitored in an HP8453 UV/Vis spectrophotometer. The concentration of AmpC was determined spectrophotometrically in stock solutions made from lyophilized powder; this enzyme had been previously expressed and purified. Usher, K. C., Blaszczak, L. C., Weston, G. S., Shoichet, B. K. and Remington, S. J. Biochemistry 1998, 37, 16082-16092. […] To determine K, values, inhibitor and enzyme were incubated together at their final concentration in the cuvettes for five minutes before the reaction was initiated by the addition of 200 μM substrate. […] Waley, S. G. Biochem. J. 1982, 205 631-633. […] In all reactions, rates were measured after reactions had overcome their initial lag phase and had reached a steady state.
as §2

For series [2], the target named is β-trypsin (bovine pancreatic) (Bos taurus, UniProt P00760). The series is described as follows: Selectivity: serine protease β-trypsin. Type of series: biochemical. The conditions noted are these: 50 mM Tris pH 7.0, 25° C. From the text: Selectivity. […] The reaction was monitored at 410 nm. […] The reaction was monitored at 253 nm. […] The reaction was monitored at 385 nm.
β-trypsin (bovine pancreatic), sequence (P00760 24-246): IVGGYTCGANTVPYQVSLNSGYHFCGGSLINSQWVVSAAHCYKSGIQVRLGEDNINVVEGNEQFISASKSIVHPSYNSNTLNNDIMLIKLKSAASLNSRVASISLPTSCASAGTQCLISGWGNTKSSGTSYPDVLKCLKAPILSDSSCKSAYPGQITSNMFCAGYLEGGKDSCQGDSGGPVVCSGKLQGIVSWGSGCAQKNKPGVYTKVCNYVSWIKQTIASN

For series [3], the system named is eight clinically isolated bacterial pathogens producing class C β-lactamases. Type of series: cell-based. As to conditions: against all strains. As for the experimental part:
Microbiology. Compounds 16 and 21 were tested for synergy with the β-lactam ceftazidime against pathogenic bacteria from clinical isolates at the Hospital Ramón y Cajal; these bacteria were resistant to β-lactams due to expression of a class C β-lactamase. […] Minimum inhibitor concentration (MIC) values were determined with Mueller-Hinton Broth II using the microdilution method according to NCCLS guidelines. National Committee for Clinical Laboratory Standards, Methods for dilution antimicrobial susceptibility test for bacteria that grow aerobically. Approved Standard M7-A4, 1997, vol. 17, National Committee for Clinical Laboratory Standards, Villanova, Pa.

Series [4] concerns the target α-chymotrypsin (bovine pancreatic) (Bos taurus, UniProt P00766). The series is described as follows: biochemical. The conditions noted are these: for selectivity for AmpC over α-chymotrypsin: ratio of IC50 values. As for the experimental part:
(§3) Selectivity. The selectivity of compounds 16 and 21 was tested by determining their activity against the serine proteases α-chymotrypsin (bovine pancreatic), β-trypsin (bovine pancreatic), and elastase (porcine pancreatic), all from Sigma (St. Louis, Mo.). The substrates for α-chymotrypsin (succinyl-ala-ala-pro-phe-p-nitroanilide) and β-trypsin (N-benzoyl-L-arginine ethyl ester) were also purchased from Sigma. The elastase substrate (MeOSuc-Ala-Ala-Pro-Val-pNA) was purchased from Calbiochem (San Diego, Calif.). Substrates were diluted from 20 mM DMSO stock solutions, and all reactions were performed in 50 mM Tris buffer, pH 7.0, 25° C. For α-chymotrypsin, 0.001 mg/ml of enzyme and the inhibitor at its final concentration were incubated in the cuvette for five minutes before the reaction was initiated by the addition of 200 μM of substrate. The reaction was monitored at 410 nm. For β-trypsin, 0.004 mg/ml of enzyme and the inhibitor at its final concentration were incubated in the cuvette for five minutes before the reaction was initiated by the addition of 200 μM of substrate. The reaction was monitored at 253 nm. For elastase, 0.006 mg/ml of enzyme and the inhibitor at its final concentration were incubated in the cuvette for five minutes before the reaction was initiated by the addition of 640 μM of substrate. The reaction was monitored at 385 nm. Initial rate fits to the absorbance data for the first 100 seconds were used to determine reaction velocities.

Series [5] addresses elastase (porcine pancreatic) (Sus scrofa, UniProt P00772). The series is described as follows: biochemical. As to conditions: for selectivity for AmpC over elastase: ratio of IC50 values. As for the experimental part: as §3
A further series has as its target T4, AmpC L119A (Escherichia coli, UniProt P00811, L135A).
T4 construct: made in house
Put plainly: biochemical. Type of series: biochemical. As for the experimental part: as §1, §2

The subject of series [6] is Escherichia coli 72929 Hip. The series is described as follows: MIC, synergy with ceftazidime, microdilution. Type of series: cell-based. As to conditions: E. coli 1, ceftazidime to inhibitor 1:1 in combinations. How it is done: (§4) Microbiology. Compounds 16 and 21 were tested for synergy with the β-lactam ceftazidime against pathogenic bacteria from clinical isolates at the Hospital Ramón y Cajal; these bacteria were resistant to β-lactams due to expression of a class C β-lactamase. Strains of bacteria tested were: Citrobacter freundii mut756-CAZ, Escherichia coli 72929 Hip, E. coli 4774 Hip (Table 4, E. coli 1 and 2, respectively), Enterobacter cloacae 72527 ED, E. cloacae 8411 CAZ-R clon7, E. cloacae 12991 ED (Table 4, E. cloacae 1, 2, and 3, respectively), Pseudomonas aeruginosa 279/88, and P. aeruginosa JMSMA7 (Table 4, P. aeruginosa 1 and 2, respectively). Minimum inhibitor concentration (MIC) values were determined with Mueller-Hinton Broth II using the microdilution method according to NCCLS guidelines. National Committee for Clinical Laboratory Standards, Methods for dilution antimicrobial susceptibility test for bacteria that grow aerobically. Approved Standard M7-A4, 1997, vol. 17, National Committee for Clinical Laboratory Standards, Villanova, Pa.

The subject of the next series is P. aeruginosa JMSMA7. The series is described as follows: MIC, synergy with ceftazidime, microdilution. The series is classed as cell-based. The conditions noted are these: Pseudomonas aeruginosa, P. aeruginosa 2, ceftazidime to inhibitor 1:1 in combinations. How it is done:
as §4

The target of series [7] is T3, AmpC β-lactamase. As to conditions: glycylboronic acid previously found, no buffer footnote; cited from earlier work.
Where [8] appears, read: differential free energy of binding relative to compound 1, 298 K, positive = improved affinity.

Like-named read-outs stand apart in the source and are kept apart here.

T3 sequence (P00811 20-377): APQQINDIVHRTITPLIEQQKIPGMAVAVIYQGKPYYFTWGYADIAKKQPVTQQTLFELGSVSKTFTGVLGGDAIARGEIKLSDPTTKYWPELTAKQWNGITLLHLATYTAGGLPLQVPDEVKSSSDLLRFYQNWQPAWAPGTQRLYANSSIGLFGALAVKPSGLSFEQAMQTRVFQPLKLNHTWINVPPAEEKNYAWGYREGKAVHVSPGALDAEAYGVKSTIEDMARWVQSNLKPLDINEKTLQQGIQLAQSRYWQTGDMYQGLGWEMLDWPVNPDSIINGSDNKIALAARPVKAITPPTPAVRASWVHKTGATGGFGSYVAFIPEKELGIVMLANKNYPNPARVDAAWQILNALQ
elastase (porcine pancreatic), sequence (P00772 27-266): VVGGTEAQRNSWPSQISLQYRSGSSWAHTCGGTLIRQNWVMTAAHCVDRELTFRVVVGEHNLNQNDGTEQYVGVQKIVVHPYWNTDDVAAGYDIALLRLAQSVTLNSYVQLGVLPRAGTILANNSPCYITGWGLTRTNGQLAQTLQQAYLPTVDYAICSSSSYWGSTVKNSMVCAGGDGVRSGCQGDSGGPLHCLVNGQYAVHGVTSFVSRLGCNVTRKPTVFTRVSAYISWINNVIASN
T2 sequence (P00811 20-377 N305A): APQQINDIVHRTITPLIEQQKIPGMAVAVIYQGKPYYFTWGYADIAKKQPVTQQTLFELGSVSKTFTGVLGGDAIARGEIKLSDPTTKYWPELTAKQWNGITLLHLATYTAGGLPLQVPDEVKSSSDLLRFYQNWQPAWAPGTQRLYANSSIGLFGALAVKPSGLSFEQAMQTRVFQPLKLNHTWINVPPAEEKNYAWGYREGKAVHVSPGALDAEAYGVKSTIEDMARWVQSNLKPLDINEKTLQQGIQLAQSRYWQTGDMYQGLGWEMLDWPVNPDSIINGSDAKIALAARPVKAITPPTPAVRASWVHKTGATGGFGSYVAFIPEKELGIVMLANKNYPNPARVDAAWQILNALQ
T1 sequence (P00811 20-377 L309A): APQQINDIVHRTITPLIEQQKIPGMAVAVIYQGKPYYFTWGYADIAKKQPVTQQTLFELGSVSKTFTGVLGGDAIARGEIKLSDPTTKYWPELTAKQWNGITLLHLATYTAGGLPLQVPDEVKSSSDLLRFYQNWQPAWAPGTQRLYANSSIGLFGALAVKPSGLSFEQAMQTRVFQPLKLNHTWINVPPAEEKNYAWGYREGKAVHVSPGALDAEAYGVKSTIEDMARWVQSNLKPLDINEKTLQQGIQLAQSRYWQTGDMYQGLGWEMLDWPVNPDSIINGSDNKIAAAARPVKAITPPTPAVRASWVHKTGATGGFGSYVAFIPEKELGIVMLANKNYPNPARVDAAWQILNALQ
T4 sequence (P00811 20-377 L135A): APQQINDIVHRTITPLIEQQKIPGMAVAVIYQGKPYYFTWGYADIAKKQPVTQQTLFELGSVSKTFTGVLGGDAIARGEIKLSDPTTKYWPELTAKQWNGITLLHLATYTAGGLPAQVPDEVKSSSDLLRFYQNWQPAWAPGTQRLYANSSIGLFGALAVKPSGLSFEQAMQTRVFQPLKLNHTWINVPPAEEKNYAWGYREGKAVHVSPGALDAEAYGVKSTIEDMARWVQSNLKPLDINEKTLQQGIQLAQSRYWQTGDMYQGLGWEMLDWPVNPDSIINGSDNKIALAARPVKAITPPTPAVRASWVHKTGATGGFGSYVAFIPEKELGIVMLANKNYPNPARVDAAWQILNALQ

Take `O=C(Cc1cccs1)N[C@@H]1C(=O)N2C(C(=O)O)=C(/C=C/c3ccc([N+](=O)[O-])cc3[N+](=O)[O-])CS[C@H]12` [nitrocefin, reference compound]: the Km at AmpC L293A (read-out: KM of nitrocefin, L293A) is 33 µM; at AmpC N289A (read-out: KM of nitrocefin, N289A), 27 µM.
As to `CC(=O)N[C@H](B(O)O)c1cccc(C(=O)O)c1` [Compound 15, (1R)-1-acetylamino-1-(3-carboxyphenyl)methylboronic acid], at AmpC β-lactamase [1], the Ki came out at 0.13 µM and the “fold more potent than the lead compound lacking the m.carboxyphenyl side chain” value is recorded as 150 fold. For the same compound, the “ΔΔG from 1” value on AmpC β-lactamase [1] (setting [8]) is 12.3 kJ/mol.
Regarding `O=C(Cc1cccs1)N[C@H](B(O)O)c1ccccc1` [Compound 21, (1R)-1-(2-thienylacetylamino)-1-phenylmethylboronic acid], the melting point was 90 to 100 °C. The same compound returned an IC50 in series [2] of more than 1000 µM. Further, the synergy with ceftazidime entry in [3] was “showed synergy”. Besides, on AmpC β-lactamase [1], the IC50 came out at 0.09 µM and the affinity corresponds to a Ki of 0.035 µM. For the same compound, on AmpC β-lactamase [1] (setting [8]), the “ΔΔG from 1” value is 15.5 kJ/mol. Also, at AmpC β-lactamase [1] (wild-type AmpC), the “fold less active than compound 16” value is recorded as 35 fold. Also, in [4], the midpoint of inhibition, the IC50, lay at 6 µM and the “selectivity for AmpC over α-chymotrypsin” value came out at 60 fold. Besides, in [5], the midpoint of inhibition, the IC50, lay at 128 µM and the “selectivity for AmpC over elastase” value is on record as 1,400 fold. Moreover, the Ki on AmpC L119A is 0.012 µM. Also, at AmpC L119A (thermodynamic cycle, WT AmpC / L119A, L=21, L′=4, negative = unfavorable), the “ΔΔΔG, interaction between the inhibitor phenyl ring and Leu119” value is -5.86 kJ/mol. This compound returned a Ki on AmpC L293A of 0.521 µM. For the same compound, the “ΔΔΔG, interaction between the inhibitor phenyl ring and Leu293” value on AmpC L293A (thermodynamic cycle, WT AmpC / L293A, L=21, L′=4, negative = unfavorable) is -2.1 kJ/mol. Moreover, the “reduction of affinity by the L293→Ala substitution” value at AmpC L293A (versus wild-type AmpC) is 6.69 kJ/mol. On AmpC N289A, this compound had an inhibitory constant (Ki) of 0.037 µM. Also, the “fall in affinity relative to the affinity of 16 for the mutant” value on AmpC N289A (AmpC N289A) is on record as 2 fold.
Regarding `O=C(Cc1cccs1)NCB(O)O` [Compound 4, reference compound], the Ki at AmpC β-lactamase [1] stood at 0.186 µM; on AmpC L119A it was 0.676 µM; at AmpC L293A, 6.2 µM.
`Cc1onc(-c2ccccc2Cl)c1C(=O)N[C@H](B(O)O)c1cccc(C(=O)O)c1` [Compound 17, (1R)-1-{[3-(2-Chlorophenyl)-5-methyl-isoxazole-4-carbonyl]-amino}-1-(3-carboxyphenyl)methylboronic acid] yielded a melting point of 180 to 190 °C. On AmpC β-lactamase [1], this compound showed a Ki of 5.7 µM. Moreover, on AmpC β-lactamase [1] (17 versus 2), the “binding energy made worse by addition of the m.carboxyphenyl group” value is listed as “about 2 kcal/mol” and the “fold less potent (higher Ki) than compound 2 lacking the m.carboxyphenyl group” value amounted to 40 fold. The “ΔΔG from 1” value on AmpC β-lactamase [1] (setting [8]) came to 2.93 kJ/mol.
Consider `CC(C)(O/N=C(\C(=O)N[C@@H]1C(=O)N2C(C(=O)[O-])=C(C[n+]3ccccc3)CS[C@H]12)c1csc(N)n1)C(=O)O` [CAZ, ceftazidime], for which the MIC turned out to be 32 mg/L in series [6] and 64 mg/L with P. aeruginosa JMSMA7.
`O=C(Cc1cccs1)N[C@H](B(O)O)c1cccc(C(=O)O)c1` [Compound 16, (1R)-1-(2-thienylacetylamino)-1-(3-carboxyphenyl)methylboronic acid] registered an IC50 in series [2] of more than 1000 µM. Also, the synergy with ceftazidime entry in series [3] was “showed synergy”. Further, on AmpC β-lactamase [1], the IC50 is 0.0026 µM, the inhibition constant (Ki) is 0.001 µM, the “type of inhibition of AmpC” value was “time-dependent inhibition” and the “fold more potent than the lead compound lacking the m.carboxyphenyl side chain” value came to 300 fold. The same compound registered a Ki at AmpC β-lactamase [1] (50 mM Tris pH 7.0, 200 μM nitrocefin, 5 min incubation) of 0.001 µM. The “ΔΔG from 1” value at AmpC β-lactamase [1] (setting [8]) was 24.4 kJ/mol. Moreover, the “improvement of binding energy by addition of the m.carboxyphenyl side chain” value on AmpC β-lactamase [1] (versus lead lacking the side chain) turned out to be 14.2 kJ/mol. Further, in series [4], inhibition was half-maximal at 150 µM (IC50) and the “selectivity for AmpC over α-chymotrypsin” value is on record as 57,000 fold. In series [5], half-maximal inhibition (IC50) was put at 500 µM and the “selectivity for AmpC over elastase” value is listed as 190,000 fold. In addition, on AmpC N289A, affinity was put at a Ki of 0.017 µM and the “reduction of affinity by the N289A substitution versus the wild-type enzyme” value is listed as 17 fold. In addition, the “ΔΔΔG, hydrogen bond energy between Asn289 and the inhibitor group” value at AmpC N289A (thermodynamic cycle, WT AmpC / N289A, mutant ligand 21) turned out to be 7.11 kJ/mol.
As to `CC(C)(O/N=C(\C(=O)NCB(O)O)c1csc(N)n1)C(=O)O` [Compound 3, reference compound], the Ki on AmpC β-lactamase [7] is 0.02 µM. Moreover, the “ΔΔG from 1 (kcal/mol)” value on AmpC β-lactamase [1] (setting [8]) is given as 4.04 — kcal/mol.
Regarding `CC(=O)NCB(O)O` [Compound 1, reference compound], the “ΔΔG from 1” value at AmpC β-lactamase [1] (setting [8]) was found to be 0 kJ/mol.
For `CC1(C)C2CC3OB([C@@H](NC(=O)Cc4cccs4)c4cccc(C=O)c4)O[C@@]3(C)C1C2` (single isomer, unassigned; (+)) [Compound 26], the Ki at AmpC β-lactamase [1] was determined as 0.015 µM; on AmpC N289A, 0.018 µM.

These data come from patent US7928129B1, “Nanomolar β-lactamase inhibitors” (Northwestern University, priority 2002, dated 2011).
